Assay results reported in patent publication US4241052A, “Novel nitrosourea compounds and process for preparing the same” (Tanabe Seiyaku Co., Ltd., priority 1978, dated 1980).

Columns and labels:
[1] = test system: Ehrlich ascites carcinoma; test: Preventive effect against the growth of Ehrlich ascites carcinoma (Method A); assay type: in vivo, mice (ICR, female); conditions: for therapeutic index (M.T.D./M.E.D.), times greater than that of GANU: Ehrlich ascites tumor, relative to GANU; for inhibition in vivo at 0.39 mg/kg: 0.39 mg/kg/day i.p.; for inhibition in vivo at 0.78 mg/kg: 0.78 mg/kg/day i.p.; for inhibition in vivo at 1.56 mg/kg: 1.56 mg/kg/day i.p.; for inhibition in vivo at 25 mg/kg: 25 mg/kg/day i.p.; for minimal effective dose: 168 h, min dose, 100% inhibition, read-out: MED (Minimum Effective Dose); for inhibition in vivo at 0.19 mg/kg: 0.19 mg/kg/day i.p.
Procedure: (§1) (A) Preventive effect against the growth of Ehrlich ascites tumor
(§2) 10^6 tumor cells of Ehrlich ascites carcinoma were inoculated intraperitoneally into a group of five femal mice (ICR mice, body weight: 19-23 g). A test compound was dissolved in a physiological saline solution and administered intraperitoneally to the mice. The administration of the test compound was began 24 hours after the inoculation of the tumor cells and performed once a day for 5 days. The volume of ascites in the treated mice were measured after 7 days of the experiment.

[2] = test system: Leukemia L-1210; test: Effect on life span of mice implanted with leukemic cells of L-1210 (Method B); assay type: in vivo, mice (BDF1, male); conditions: for increase in the average life span: five consecutive days; for 60-day survivors (mice survived/mice used) / ILS: 5 days
Procedure: (B) Effect on the life span of mice implanted with leukemic cells of L-1210
10^5 leukemic cells of L-1210 were inoculated intraperitoneally into a group of four male mice (BDF1 mice, body weight: 19-23 g). A test compound was dissolved in a physiological saline solution and administered intraperitoneally to the mice. The administration of the test compound was began 24 hours after the inoculation of the leukemic cells and performed once a day for 5 days. The survival days of the treated mice were observed.

[3] = Preventive effect against the growth of Ehrlich ascites carcinoma (Method A); assay type: in vivo, mice (ICR, female); conditions: mouse, in vivo, ip; max dose, 100% inhibition without death; doses of the table in mg/kg/day; read-out: MTD (Maximum Tolerated Dose)
Procedure: as §1, §2

[4] = Mus musculus, Ehrlich, ip, 120 h, 5 days, read-out: Inhibition ratio
[5] = Mus musculus, Ehrlich, ip, 120 h, 6.25 mg/kg/day i.p., 5 days, read-out: Inhibition ratio
[6] = Mus musculus, Ehrlich, ip, 120 h, 100 mg/kg/day i.p., 5 days, read-out: Inhibition ratio
[7] = Mus musculus, Ehrlich, ip, 120 h, 400 mg/kg/day i.p., 5 days, read-out: Inhibition ratio
[8] = Mus musculus, Ehrlich, ip, doses of the table in mg/kg/day
[9] = Mus musculus, Ehrlich, ip, 120 h, 3.12 mg/kg/day i.p., 5 days, read-out: Inhibition ratio
[10] = Mus musculus, Ehrlich, ip, 120 h, 12.5 mg/kg/day i.p., 5 days, read-out: Inhibition ratio
[11] = Mus musculus, Ehrlich, ip, 120 h, 50 mg/kg/day i.p., 5 days, read-out: Inhibition ratio

Compound | Therapeutic index (MTD/MED) [1] | inhibition in vivo at 0.39 mg/kg [1, 4] [%] | inhibition in vivo at 0.78 mg/kg [1, 4] [%] | inhibition in vivo at 1.56 mg/kg [1, 4] [%] | inhibition in vivo at 6.25 mg/kg [1, 5] [%] | inhibition in vivo at 25 mg/kg [1, 4] [%] | inhibition in vivo at 100 mg/kg [1, 6] [%] | minimal effective dose [1, 8] [mg/kg/day] | MTD at 168 h [3] [mg/kg/day] | also measured
COc1ccc(CN(C(=O)N(CCCl)N=O)C2O[C@H](CO)[C@@H](O[C@H]3O[C@H](CO)[C@@H](O)[C@H](O)[C@H]3O)[C@H](O)[C@H]2O)cc1 (some centres unmarked) |  |  |  |  |  |  |  |  |  | therapeutic index (M.T.D./M.E.D.), times greater than that of GANU [1]: about 8 times
O=NN(CCCl)C(=O)N(Cc1cccs1)C1O[C@H](CO)[C@@H](O[C@H]2O[C@H](CO)[C@@H](O)[C@H](O)[C@H]2O)[C@H](O)[C@H]1O (some centres unmarked) |  |  |  |  |  |  |  |  |  | therapeutic index (M.T.D./M.E.D.), times greater than that of GANU [1]: about 8 times
O=NN(CCCl)C(=O)N(Cc1ccccc1)C1O[C@H](CO)[C@@H](O[C@H]2O[C@H](CO)[C@@H](O)[C@H](O)[C@H]2O)[C@H](O)[C@H]1O (some centres unmarked) |  |  |  |  |  |  |  |  |  | therapeutic index (M.T.D./M.E.D.), times greater than that of GANU [1]: about 8 times
O=NN(CCCl)C(=O)N(CC1CO1)C1OC[C@H](O)[C@H](O)[C@H]1O (stereo partly drawn) [1-(2-chloroethyl)-1-nitroso-3-(oxiran-2-yl-methyl)-3-(L-arabinopyranosyl)urea] |  |  |  |  |  |  |  |  |  | increase in the average life span ([2]; 1.05 mg/kg i.p.): about 30%
O=NN(CCCl)C(=O)N(Cc1cccs1)C1OC[C@H](O)[C@H](O)[C@H]1O (stereo partly drawn) [1-(2-chloroethyl)-1-nitroso-3-(thiophen-2-yl-methyl)-3-(L-arabinopyranosyl)urea] |  |  |  |  |  |  |  |  |  | increase in the average life span ([2]; 0.35 mg/kg i.p.): about 30%
O=NN(CCCl)C(=O)N(CC1CC1)C1OC[C@H](O)[C@H](O)[C@H]1O (stereo partly drawn) [1-(2-chloroethyl)-1-nitroso-3-cyclopropylmethyl-3-(L-arabinopyranosyl)urea] |  |  |  |  |  |  |  |  |  | increase in the average life span ([2]; 1.1 mg/kg i.p.): about 30%
O=NN(CCCl)C(=O)N(CC1CCCO1)C1O[C@H](CO)[C@H](O)[C@H](O)[C@H]1O (stereo partly drawn) [1-(2-chloroethyl)-1-nitroso-3-tetrahydrofurfuryl-3-(D-galactopyranosyl)urea] |  |  |  |  |  |  |  |  |  | increase in the average life span ([2]; 1.7 mg/kg i.p.): about 30%
O=NN(CCCl)C(=O)NC1CCCCC1 [CCNU, 1-(2-chloroethyl)-1-nitroso-3-cyclohexylurea, reference compound] | 4 |  |  |  |  |  |  |  |  | Inhibition ratio ([1]; 3.12 mg/kg/day i.p., 5 days): 21.1%; Inhibition ratio ([1]; 6.25 mg/kg/day i.p., 5 days): 33.3%; Inhibition ratio ([1]; 12.5 mg/kg/day i.p., 5 days): 100%; Inhibition ratio ([1]; 50 mg/kg/day i.p., 5 days): 100%; Toxic (number of mice died/number of mice used) ([1]; 100 mg/kg/day i.p., 5 days): 5/5; MTD (Maximum Tolerated Dose) ([1]; max dose, 100% inhibition without death, doses of the table in mg/kg/day, 10080 min): 50
O=NN(CCCl)C(=O)N(Cc1ccccc1)C1O[C@H](CO)[C@@H](O[C@H]2O[C@H](CO)[C@@H](O)[C@H](O)[C@H]2O)[C@H](O)[C@H]1O (stereo partly drawn) [Compound 1, 1-(2-chloroethyl)-1-nitroso-3-benzyl-3-[O-α-D-glucopyranosyl-(1→4)-D-glucopyranosyl]urea] | 256 | 9.3 | 66.7 | 100 | 100 | 100 | 100 | 1.56 | 400 | Toxic (number of mice died/number of mice used) ([1]; 800 mg/kg/day i.p., 5 days): 5/5; inhibition in vivo at 400 mg/kg [1, 7]: 100%; 60-day survivors (mice survived/mice used) ([2]; 25 mg/kg/day i.p.): 0/4; ILS ([2]; 25 mg/kg/day i.p.): 55.2%; 60-day survivors (mice survived/mice used) ([2]; 100 mg/kg/day i.p.): 1/4; ILS ([2]; 100 mg/kg/day i.p.): > 236.8%; 60-day survivors (mice survived/mice used) ([2]; 200 mg/kg/day i.p.): 4/4; ILS ([2]; 200 mg/kg/day i.p.): > 589.7%
Cc1ccc(CN(C(=O)N(CCCl)N=O)C2O[C@H](CO)[C@@H](O[C@H]3O[C@H](CO)[C@@H](O)[C@H](O)[C@H]3O)[C@H](O)[C@H]2O)cc1 (stereo partly drawn) [Compound 2, 1-(2-chloroethyl)-1-nitroso-3-(p-methylbenzyl)-3-[O-α-D-glucopyranosyl-(1→4)-D-glucopyranosyl]urea] | 256 | 12.8 | 74.4 | 100 | 100 | 100 | 100 | 1.56 | 400 | Toxic (number of mice died/number of mice used) ([1]; 800 mg/kg/day i.p., 5 days): 5/5; inhibition in vivo at 400 mg/kg [1, 7]: 100%
O=NN(CCCl)C(=O)N(CCc1ccccc1)C1O[C@H](CO)[C@@H](O[C@H]2O[C@H](CO)[C@@H](O)[C@H](O)[C@H]2O)[C@H](O)[C@H]1O (stereo partly drawn) [Compound 4, 1-(2-chloroethyl)-1-nitroso-3-phenethyl-3-[O-α-D-glucopyranosyl-(1→4)-D-glucopyranosyl]urea] | 64 |  | 2.6 | 66.7 |  |  |  | 3.12 | 200 | Toxic (number of mice died/number of mice used) ([1]; 400 mg/kg/day i.p., 5 days): 5/5; inhibition in vivo at 3.12 mg/kg [1, 9]: 100%; inhibition in vivo at 12.5 mg/kg [1, 10]: 100%; inhibition in vivo at 50 mg/kg [1, 11]: 100%; inhibition in vivo at 200 mg/kg ([1]; Mus musculus, Ehrlich, ip, 120 h, 200 mg/kg/day i.p., 5 days, read-out: Inhibition ratio): 100%
CC(c1ccccc1)N(C(=O)N(CCCl)N=O)C1O[C@H](CO)[C@@H](O[C@H]2O[C@H](CO)[C@@H](O)[C@H](O)[C@H]2O)[C@H](O)[C@H]1O (stereo partly drawn) [Compound 5, 1-(2-chloroethyl)-1-nitroso-3-(α-methylbenzyl)-3-[O-α-D-glucopyranosyl-(1→4)-D-glucopyranosyl]urea] | 128 |  |  | 6.2 | 100 | 100 | 100 | 3.12 | 400 | Toxic (number of mice died/number of mice used) ([1]; 800 mg/kg/day i.p., 5 days): 4/5; inhibition in vivo at 3.12 mg/kg [1, 9]: 100%; inhibition in vivo at 400 mg/kg [1, 7]: 100%
O=NN(CCCl)C(=O)N(Cc1cccs1)C1O[C@H](CO)[C@@H](O[C@H]2O[C@H](CO)[C@@H](O)[C@H](O)[C@H]2O)[C@H](O)[C@H]1O (stereo partly drawn) [Compound 7, 1-(2-chloroethyl)-1-nitroso-3-(thiophen-2-yl-methyl)-3-[O-α-D-glucopyranosyl-(1→4)-D-glucopyranosyl]urea] | 256 | 6.2 | 31.2 | 100 | 100 | 100 | 100 | 1.56 | 400 | Toxic (number of mice died/number of mice used) ([1]; 800 mg/kg/day i.p., 5 days): 5/5; inhibition in vivo at 400 mg/kg [1, 7]: 100%
O=NN(CCCl)C(=O)N(Cc1ccccc1)C1OC[C@H](O)[C@H](O)[C@H]1O (stereo partly drawn) [Compound 11, 1-(2-chloroethyl)-1-nitroso-3-benzyl-3-(L-arabinopyranosyl)urea] | 128 | 65.3 | 100 | 100 | 100 | 100 | 100 | 0.78 | 100 | Toxic (number of mice died/number of mice used) ([1]; 200 mg/kg/day i.p., 5 days): 5/5; inhibition in vivo at 0.19 mg/kg [1, 4]: 18.4%
O=NN(CCCl)C(=O)N(CC1CO1)C1OC[C@H](O)[C@H](O)[C@H]1O (stereo partly drawn) [Compound 12, 1-(2-chloroethyl)-1-nitroso-3-(oxiran-2-yl-methyl)-3-(L-arabinopyranosyl)urea] | 128 | 100 | 100 |  |  |  |  | 0.39 | 50 | Toxic (number of mice died/number of mice used) ([1]; 100 mg/kg/day i.p., 5 days): 5/5; inhibition in vivo at 0.19 mg/kg [1, 4]: 20.9%; inhibition in vivo at 3.12 mg/kg [1, 9]: 100%; inhibition in vivo at 12.5 mg/kg [1, 10]: 100%; inhibition in vivo at 50 mg/kg [1, 11]: 100%
O=NN(CCCl)C(=O)N(Cc1ccco1)C1O[C@H](CO)[C@@H](O)[C@H]1O (stereo partly drawn) [Compound 14, 1-(2-chloroethyl)-1-nitroso-3-furfuryl-3-(D-ribofuranosyl)urea] | 64 | 18.4 | 30.6 | 100 | 100 | 100 | 100 | 1.56 | 100 | Toxic (number of mice died/number of mice used) ([1]; 200 mg/kg/day i.p., 5 days): 5/5
